In one assay the target is T1, recombinant human PAPD7 (Homo sapiens, UniProt Q5XG87).
T1 construct: PAPD7 (amino acids 226 to 558; NM_006999.6); 10xHis (N); Flag (N); TEV cleavage site (N); host or cells: E. coli BL21(DE3), vector pET-24a(+)
Description: PAPD7 ATP depletion assay. In kind it is biochemical. The method, then: (§1) Molecular cloning, expression, and purification of the recombinant human PAPD5 and PAPD7 proteins were performed at Xtal BioStructures (MA, USA). PAPD5 (amino acids 186 to 518; GenBank accession no. XM_011523275) and PAPD7 (amino acids 226 to 558; GenBank accession no. NM_006999.6) genes comprising of nucleotidyltransferase and PAP-associated domains were codon optimized, synthesized, and inserted in the expression vector pET-24a(+) for E. coli expression with 10×His-Flag-tobacco etch virus (TEV) tags at the N terminus. The pET-24a(+) constructs were transformed into E. coli-competent cells BL21(DE3). […] Expression of protein was induced for 16 h with 0.2 mM IPTG (isopropyl-β-D-thiogalactopyranoside) at 18°C. […] Roche). Cell suspension was sonicated 8 × 20 s at 27 to 30 W (power level, 3.5 to 4.0) with 40-s breaks between each pulse. Lysate was cleared by centrifugation in a 50-ml conical tube at 20,000 × g for 30 min (Fiberlite F13-14 × 50cy rotor in a Sorvall RC6 centrifuge). Supernatant was incubated with Ni-charged MagBeads (GenScript; catalog no. […] Bound proteins were washed with 50 ml binding buffer and eluted in elution buffer containing a gradient of imidazole ranging from 5 to 500 mM. Peak fractions were pooled and stored in 50% glycerol at -80°C. Reactions were carried out in duplicate in 96-well low-profile, skirted, white plates (catalog no. AB0800WL; […] The reaction mixtures were incubated at room temperature for 3 h, and ATP depletion was monitored by using Kinase-Glo luminescent kinase kit following the manufacturer's instructions (catalog no. V6712; Promega, WI, USA).

Assay [1] has as its system HBV. Description: Antiviral assay in HepG2.2.15 cells (HBsAg/HBeAg CLIA, secreted HBV DNA qPCR). In kind it is cell-based, hepatitis B virus. (In general: Real-time PCR tracks product formation cycle by cycle.)
Another assay deals with HBV PRE. Nature of the assay: HBV PRE cis-element reporter plasmids (HBsAg or Gluc) transfected in Huh-7 cells. To be noted: Hepatitis B virus.
A further assay concerns the target T2, recombinant human PAPD5 (Homo sapiens, UniProt Q8NDF8).
T2 construct: PAPD5 (amino acids 186 to 518; XM_011523275); 10xHis (N); Flag (N); TEV cleavage site (N); host or cells: E. coli BL21(DE3), vector pET-24a(+)
Description: PAPD5 ATP depletion assay. It counts as biochemical. The conditions noted are these: truncated recombinant human PAPD5, ATP depletion. The method, then:
as §1

Assay [2] has as its system HBV. Description: HBsAg inhibition in PLC/PRF/5 cells. In kind it is cell-based. To be noted: Hepatitis B virus. The method, then: AB-452 and RG7834 both belong to the dihydroquinolizinones chemical class. The antiviral activities of AB-452 and its diastereomer ARB-169451 were evaluated using multiple in vitro HBV replication models, including HepG2.2.15 cells (which constitutively express HBV through the integrated viral genome), PLC/PRF/5 cells (a patient-derived hepatocellular carcinoma cell line only expressing HBsAg), and HBV-infected HepG2-NTCP cells or primary human hepatocytes (PHHs) in which viral replication was dependent on cccDNA transcription (Table 1).
HepG2.2.15, HepAD38, and PLC/PRF/5 cells were cultured in Dulbecco’s modified Eagle medium (DMEM)/F12 medium (Corning, NY, USA), supplemented with 10% fetal bovine serum (Gemini, CA, USA), 100 U/ml penicillin, and 100 μg/ml streptomycin. Huh-7 cells (Creative Bioarray, NY, USA) were cultured in RPMI 1640 medium (Basel, Switzerland) containing 10% fetal bovine serum, 100 U/ml penicillin, and 100 μg/ml streptomycin. HepG2-hNTCP-C4 cells were cultured in DMEM medium (Gibco, MA, USA) containing 10% fetal bovine serum and 10 mM HEPES (Gibco).

The test system of assay [3] is HBV. Nature of the assay: HBV replication intermediates and viral proteins in HepG2.2.15 cells (Northern, Western, particle gel, Southern). To be noted: HepG2.2.15, 6 days; ETV, GLS-4, cmpdA 1 μM; AB-452 70 nM. It counts as cell-based, hepatitis B virus. The method, then:
Total cellular RNA was extracted from HepG2.2.15 or HepAD38 cells treated with or without antiviral compounds using TRIzol reagent according to the manufacturer's directions (Thermo Fisher Scientific, Waltham, MA). Northern blotting was performed as described previously ([1]). Briefly, total RNA was separated in a 1.5% agarose gel and transferred onto an Amersham Hybond-XL membrane (product no. GERPN303S; GE Healthcare, IL, USA). Membranes were probed with an [α-^32P]UTP (PerkinElmer, CT, USA)-labeled minus strand-specific full-length HBV riboprobe (3.2 kb) transcribed from plasmid pSP65_HBV(+) DNA. Membranes were exposed to a phosphoimager screen, and the hybridization signals were quantified using Image Studio software (Li-Cor Biosciences, NE, USA).
Total intracellular viral core-associated DNA was extracted as described previously ([1]) and analyzed by Southern blotting hybridization with an [α-^32P]UTP-labeled full-length HBV riboprobe (3.2 kb) that specifically hybridized to minus strand of viral DNA. Membranes were exposed to a phosphoimager screen, and the hybridization signals were quantified using Image Studio software.
HepG2.2.15 or HepAD38 cells cultured in a 12-well plate were lysed with 200 μl Laemmli sample buffer (Bio-Rad, PA, USA) supplemented with 2.5% 2-mercaptoethanol (Sigma-Aldrich, MO, USA). […]

The next assay deals with PAPD5. More on the design: method as in PMID 31801065. The conditions noted are these: read-out: PAPD5 IC50 previously reported; cited from earlier work.
The test system of another assay is HBsAg. Nature of the assay: HBsAg inhibition in adenovirus-HBsAg-transduced HepG2-NTCP WT and KO clones. It counts as cell-based, hepatitis B virus. To be noted: for EC50: HBsAg, read-out: Adeno infection EC50.

Like-named read-outs stand apart in the source and are kept apart here. Where only a bound is given, the exact number is not on record here.

T2 sequence (Q8NDF8 106-438 limits assumed): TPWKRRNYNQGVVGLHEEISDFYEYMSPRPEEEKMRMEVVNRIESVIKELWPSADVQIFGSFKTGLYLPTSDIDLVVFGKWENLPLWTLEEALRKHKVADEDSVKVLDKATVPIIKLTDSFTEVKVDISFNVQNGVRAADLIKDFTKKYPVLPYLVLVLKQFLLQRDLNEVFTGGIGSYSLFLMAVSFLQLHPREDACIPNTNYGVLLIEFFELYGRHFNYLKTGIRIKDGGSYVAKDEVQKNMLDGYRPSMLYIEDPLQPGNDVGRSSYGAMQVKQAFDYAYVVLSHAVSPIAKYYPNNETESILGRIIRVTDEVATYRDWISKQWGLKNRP
T1 sequence (Q5XG87 226-558): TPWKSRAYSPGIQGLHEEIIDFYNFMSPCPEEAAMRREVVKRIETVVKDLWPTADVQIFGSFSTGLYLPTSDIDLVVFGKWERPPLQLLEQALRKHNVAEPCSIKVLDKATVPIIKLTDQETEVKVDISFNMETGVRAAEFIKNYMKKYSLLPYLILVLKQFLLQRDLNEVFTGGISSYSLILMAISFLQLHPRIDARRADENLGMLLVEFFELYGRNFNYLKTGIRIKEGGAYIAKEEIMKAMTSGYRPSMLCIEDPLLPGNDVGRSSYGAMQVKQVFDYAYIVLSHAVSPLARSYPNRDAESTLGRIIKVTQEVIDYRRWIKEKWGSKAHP

As usually defined, the IC50 is the concentration that gives 50% inhibition. Broadly, the EC50 is the concentration needed to bring the measured effect to its halfway point. `COCCCOc1cc2c(nc1OC)-c1cc(=O)c(C(=O)O)cn1[C@@H](C(C)C)C2` [ARB-169451]: the concentration for half-maximal inhibition (IC50) at recombinant human PAPD7 was more than 50000 nM; on recombinant human PAPD5 it was 27000 nM. Besides, in the assay on HBV [1], the “fold weaker toward HBsAg inhibition than AB-452” value is on record as “more than 1,000 fold”. The EC50 with HBV [1] (Hepatitis B virus, HepG2.2.15 cells, read-out: HBsAg EC50) was 2230 nM; in the assay on HBV PRE (120 h, read-out: EC50, Gluc_dHBx (Gluc activity)), more than 100 nM; in the assay with HBV PRE (120 h, read-out: EC50, H133_Gluc (Gluc activity)), more than 100 nM; in the assay on HBV PRE (Huh-7, 120 h, read-out: EC50, Gluc_rcSLα (Gluc activity)) it was more than 100 nM; in the assay on HBV PRE (Huh-7, 120 h, read-out: EC50, H133 (HBsAg)), more than 100 nM; in the assay with HBV PRE (Huh-7, 120 h, read-out: EC50, H133_dLa (HBsAg)) it was more than 100 nM. For the same compound, the concentration for a half-maximal effect (EC50) in the assay with HBV PRE (Huh-7, 120 h, read-out: EC50, H133_dSLα (HBsAg)) was more than 100 nM; in the assay with HBV [2], more than 100 nM.

Regarding `C=C1[C@H](CO)[C@@H](O)C[C@@H]1n1cnc2c(=O)[nH]c(N)nc21` [ETV, entecavir, reference compound], in the assay with HBV [3], the “Effect on HBV replication intermediates and viral proteins” value was “strongly inhibited HBV DNA replication but did not reduce the production of intracellular HBV RNA, core protein levels, or capsid assembly”.

In the case of `COCCCOc1cc2c(cc1OC)-c1cc(=O)c(C(=O)O)cn1[C@H](C(C)C)C2` [RG7834, reference compound], the IC50 in the assay on PAPD5 was 1.3 nM; at recombinant human PAPD7 it was 1090 nM; at recombinant human PAPD5, 167 nM. Besides, the “Adeno infection FC vs WT” value in the assay on HBsAg (P5_KO (T3-4)) came to 10.7; in the assay on HBsAg (P5_KO (T3-15)) it was 7.3; with HBsAg (P7_KO (T2-8)) it was 2.0; in the assay on HBsAg (P7_KO (T2-22)), 0.9; in the assay on HBsAg (WT (parent)), 1. Besides, the EC50 is 126 ± 74.7 nM with HBsAg (P5_KO (T3-4)); 85.7 ± 59.8 nM in the assay with HBsAg (P5_KO (T3-15)); 23.7 ± 15.2 nM with HBsAg (P7_KO (T2-8)); 10.8 ± 2.1 nM in the assay with HBsAg (P7_KO (T2-22)); 11.8 ± 9.6 nM with HBsAg (WT (parent) HepG2-NTCP).

The values above are taken from publication PMC8387043, “Host Poly(A) Polymerases PAPD5 and PAPD7 Provide Two Layers of Protection That Ensure the Integrity and Stability of Hepatitis B Virus RNA” (Journal of Virology, 2021).
